In the oligonucleotide strings, read from the 5' end, every base follows the letter of its sugar. An asterisk marks phosphorothioate; unmarked linkages are phosphodiester. Other units and linkages are bracketed, terminal groups are in braces. A string of capitals states the bases alone. e = 2'-O-(2-methoxyethyl) (MOE); [5mC] = 5-methylcytosine; d = 2'-deoxy (DNA)
Legend:
HUVEC = test: Apoptosis of HUVEC (hypodiploid cells by flow cytometry); type: cell-based, human; conditions: for increase in cellular DNA fragmentation over background: agent alone at low dose: staurosporine 2 nM, C6-ceramide 5 μM
Description: Human umbilical vein endothelial cells (HUVEC) were obtained from Clonetics (San Diego Calif.) and cultivated in endothelial growth medium (EGM) supplemented with 10% fetal bovine serum. Cells were used between passages 2 and 5 and were used at approximately 80% confluency. Cells were washed three times with pre-warmed (37° C.) Opti-MEM™. Oligonucleotides were premixed with 10 μg/ml Lipofectin™ in Opto-MEM™ at an oligonucleotide concentration of 50 nM ISIS 16009. Cells were incubated with oligonucleotide for 4 hours at 37° C. after which the medium was removed and replaced with standard growth medium. Treatment with C6-ceramide (Calbiochem, San Diego Calif.), staurosporine (Calbiochem), or z-VAD.fmk (Calbiochem), if any, was done 24 hours after oligonucleotide treatment. […] Apoptotic cells with fragmented DNA were identified by flow cytometry analysis of hypodiploid cells.

human bcl-x mRNA = test: Northern blot analysis of bcl-x mRNA levels in A549 cells; type: cell-based; conditions: 200 nM chimeric oligonucleotide
Description: Eighteen hours after antisense treatment, cell monolayers were washed twice with cold PBS and lysed in 1 mL RNAZOL™ (TEL-TEST “B” Inc., Friendswood, Tex.). Total RNA was prepared following manufacturer's recommended protocols. Twenty micrograms of total RNA was fractionated by electrophoresis through 1.2% agarose gels containing 1.1% formaldehyde using a MOPS buffer system (AMRESCO, Inc. Solon, Ohio). RNA was transferred from the gel to HYBOND™-N+ nylon membranes (Amersham Pharmacia Biotech, Piscataway, N.J.) by overnight capillary transfer using a Northern/Southern Transfer buffer system (TEL-TEST “B” Inc., Friendswood, Tex.). RNA transfer was confirmed by UV visualization. Membranes were fixed by UV cross-linking using a STRATALINKER™ UV Crosslinker 2400 (Stratagene, Inc, La Jolla, Calif.).
Membranes were probed using QUICKHYB™ hybridization solution (Stratagene, La Jolla, Calif.) using manufacturer's recommendations for stringent conditions with an 822-base pair bcl-x specific probe prepared by PCR from bases 33–855 of human bcl-xl sequence (Boise et al., 1993, Cell 74:597–608; GenBank accession no. L20121). To normalize for variations in loading and transfer efficiency membranes were stripped and probed for glyceraldehyde-3-phosphate dehydrogenase (GAPDH) RNA (Clontech, Palo Alto, Calif.). Hybridized membranes were visualized and quantitated using a PHOSPHORIMAGER™ and IMAGEQUANT™ Software V3.3 (Molecular Dynamics, Sunnyvale, Calif.). Data was normalized to GAPDH levels in untreated controls.
Oligonucleotides were tested by Northern blot analysis as described in Example 14. Oligonucleotides were tested in A549 cells at a concentration of 400 nM. The results are Table 2:
Oligonucleotides were tested by Northern blot analysis as described in Example 14. Chimeric oligonucleotides were in A549 cells at a concentration of 200 nM. Where present, “N.D.” indicates “not determined”.

total bcl-x mRNA = test: RNase protection assay, total bcl-x mRNA in A549 cells; type: cell-based, human; parameters: % CONTROL total bcl-x: concentration or dose not given beside the values; conditions: RPA
Text: (§1) The ribonuclease (RNase) protection assay is a sensitive and specific method for quantitating expression levels (Zinn, et al., Cell, 1983, 34:865–79). The method is based on the hybridization of a target RNA to an in vitro transcribed ^32P-labeled anti-sense RNA probe from a DNA template. RNase treatment follows, resulting in degradation of single-stranded RNA and excess probe. The probe and target RNA are resolved by denaturing polyacrylamide gel electrophoresis with the “protected” probe visualized using autoradiography or beta imaging equipment. Template sets can be purchased (PharMingen Inc., San Diego Calif.) which contain a series of biologically relevant templates, each of distinct length and each representing a sequence in a distinct mRNA species. Each template set is capable of detecting up to 11 unique gene messages in a single reaction mix in addition to one or more housekeeping genes, L32 and GAPDH, which serve as internal controls. These template sets allow for multiple determinations to be made from a single sample. Multi-probe RPA can be performed on total RNA preparations derived by standard methods, without further purification of poly-A+ RNA.
(§2) Oligonucleotides were evaluated for their respective effects on bcl-xs and bcl-xl mRNA levels along with total bcl-x mRNA levels, using the RIBOQUANT™ RNase protection kit (Pharmingen, San Diego Calif.). All assays were performed according to manufacturer's protocols. Briefly, multi-probe DNA template sets were used to generate antisense RNA transcripts radiolabeled with […]. The template set used for apoptosis genes was the human hAPO-2 set. These radiolabeled probes were hybridized overnight with typically 10 μg of total cellular RNA. The reaction mixture was then digested with single-strand RNases to generate the protected fragments which were electrophoresed through a 5% acrylamide/urea gel. Protected bands were visualized and quantitated using a PhosphorImager (Molecular Dynamics, Sunnyvale Calif.).
(§3) Human bcl-x has two forms, a long form known as bcl-xl and a short form known as bcl-xs. […] The protein of bcl-xl is similar in size and structure to bcl-2, and could inhibit cell death upon growth factor withdrawal. The protein of bcl-xs is 63 amino acids shorter than bcl-xl. It could inhibit the bcl-2 function, thus promoting programmed cell death (apoptosis). Oligonucleotides were evaluated for their respective effects on bcl-xs and bcl-xl mRNA levels along with total bcl-x mRNA levels, using the RIBOQUANT™ RNase protection kit (Pharmingen, San Diego Calif.). All assays were performed according to manufacturer's protocols.

bcl-xs mRNA = test: RNase protection assay, bcl-xs mRNA in A549 cells; type: cell-based, human; parameters: concentration or dose not given beside the values; conditions: RPA
Text: as §1, §2, §3

bcl-xs/bcl-xl mRNA ratio = test: RNase protection assay, bcl-xs/bcl-xl mRNA ratio in A549 cells; type: cell-based, human; conditions: A549 cells, RPA; for bcl-xs/bcl-xl (%): no oligo 17.56
Text: as §1, §2, §3
(§4) These oligonucleotides were tested for their inhibitory effects on bcl-xl and bcl-xs mRNA levels in A549 cells, as detected by RPA analysis. Oligonucleotide concentration was 200 nM.

bcl-xl mRNA = test: RNase protection assay, bcl-xl mRNA in A549 cells; type: cell-based, human; conditions: RPA
Text: as §1, §2, §3, §4

bcl-xl protein = test: Immunoblot of bcl-xl protein in CEM cells; type: cell-based, human
Description: Postnuclear detergent lysates were prepared as described by Reed et al. (Cancer Res., 1991, 51, 6529–6538), and the protein concentration was determined using a Bradford method protein assay kit (Bio-Rad, Hercules, Calif.). Protein (20 μg) was loaded in each lane, followed by electrophoresis on a 12% sodium dodecyl sulfate-polyacrylamide gel, followed by immunoblotting (Winston et al., 1993). The primary antibody was a 0.4 μg/ml dilution of the mouse monoclonal anti-human bcl-2 (clone 124, Dako, Carpinteria, Calif.), a 4.0 μg/ml dilution of the rabbit polyclonal anti-human bcl-xs/l (Dako), or a 0.3 μg/ml dilution of rabbit polyclonal anti-human Bax (N-20, Santa Cruz Biotechnology, Santa Cruz, Calif.). For development and STORM fluorescent imaging, the secondary antibody was peroxidase-conjugated sheep anti-mouse or donkey anti-rabbit (Amersham, Little Chalfort, UK). Chemiluminescence imaging and quantification were preformed using the STORM instrument and ImageQuant software (Molecular Dynamics, Sunnyvale, Calif.).

CEM-C7 cells = test: Viable cell counts of CEM cells (propidium iodide exclusion, flow cytometry); type: cell-based, human; conditions: CEM cells; for viability by propidium iodide exclusion: 20 μM electroporation
Description: CEM-C7 cells (Norman et al., 1978), a glucocortocoid sensitive clone of the human T-lymphoblastic cell line CEM, were cultured between 5×10^4 to 10^6 cells/ml in RPMI 1640 medium containing 10% heat-inactivated fetal bovine serum (FBS), streptomycin, penicillin G, 15 mM HEPES, 2 mM sodium pyruvate, at 37° C. in a humid, 5% CO2 incubator. Viable cell counts were performed by propidium iodide staining and flow cytometry.
CEM-C7 cells were electroporated with the indicated concentrations of oligonucleotides at 150 volts, 1,700 microFaraday (μF), and a resistance setting of 5 with a BTX electroporation apparatus (Genetronics, San Diego, Calif.) in 2-mm gap cuvettes containing 5×10^6 cells in 200 μl RPMI plus 20% FBS on ice. Cells were left on ice for 10 minutes, then plated in 5 ml complete media.

Compound | % CONTROL total bcl-x (total bcl-x mRNA) [%] | % CONTROL bcl-xs (bcl-xs mRNA) [%] | bcl-xs/bcl-xl (%) (bcl-xs/bcl-xl mRNA ratio) | bcl-xs/bcl-xl* (change from the control ratio 17.56) (bcl-xs/bcl-xl mRNA ratio; no oligo = 1) | % CONTROL bcl-xl (bcl-xl mRNA) [%] | other results
CCCCCCCCCCCCC/C=C/[C@@H](O)[C@H](CO)NC(=O)CCCCC [C6-ceramide] |  |  |  |  |  | increase in cellular DNA fragmentation over background (HUVEC): did not cause a significant increase
16013 (antisense eT*eA*eG*eA*eG*dT*dT*dC*dC*dA*dC*dA*dA*dA*dA*eG*eT*eA*eT*e[5mC]) [compound 16013] | 82 | 60 | 12.46 | 0.71 | 83 | % CONTROL (bcl-x mRNA levels) (human bcl-x mRNA): 85%; % INHIB (bcl-x mRNA levels) (human bcl-x mRNA): 15%
16012 (antisense e[5mC]*e[5mC]*eA*eG*e[5mC]*dC*dG*dC*dC*dG*dT*dT*dC*dT*dC*e[5mC]*eT*eG*eG*eA) [compound 16012] | 61 | 48 | 13.17 | 0.75 | 63 | % CONTROL (bcl-x mRNA levels) (human bcl-x mRNA): 30%; % INHIB (bcl-x mRNA levels) (human bcl-x mRNA): 70%
5′-TCACATTGGCGCTTAGCCGT-3′ (chemistry not given here) [ISIS 16971, reference compound] |  |  |  |  |  | level of bcl-xl protein (bcl-xl protein): no effect; viability by propidium iodide exclusion (CEM-C7 cells; 48 hours): 70%; viability by propidium iodide exclusion (CEM-C7 cells; 72 hours): 82%; viable cell count at the highest concentration (CEM-C7 cells; 20 hours after electroporation): started to decrease
COC(=O)CC[C@H](NC(=O)[C@H](CC(=O)OC)NC(=O)OCc1ccccc1)C(=O)N[C@H](C(=O)N[C@@H](CC(=O)OC)C(=O)CF)C(C)C [z-DEVD.fmk] |  |  |  |  |  | apoptosis caused by bcl-x inhibition, or bcl-x plus staurosporine or ceramide (HUVEC; caspase inhibitor treatment): prevented
23172 (antisense eG*eT*eT*e[5mC]*e[5mC]*eT*eG*eG*e[5mC]*e[5mC]*e[5mC]*eT*eT*eT*e[5mC]*eG*eG*e[5mC]*eT*e[5mC]) [compound 23172] | 79 | 84 | 19.38 | 1.10 | 77 | 
22783 (antisense e[5mC]*eT*eG*eG*eA*eT*e[5mC]*e[5mC]*eA*eA*eG*eG*e[5mC]*eT*e[5mC]*eT*eA*eG*eG*eT) [compound 22783] | 120 | 620 | 293.10 | 16.69 | 35 | bcl-xs/bcl-xl Fold difference (bcl-xs/bcl-xl mRNA ratio; 200 nM, no oligo = 1): 18 fold; % CONTROL bcl-xl (bcl-xl mRNA; 200 nM): 39%
CN[C@@H]1C[C@H]2O[C@@](C)([C@@H]1OC)n1c3ccccc3c3c4c(c5c6ccccc6n2c5c31)C(=O)NC4 [staurosporine] |  |  |  |  |  | increase in cellular DNA fragmentation over background (HUVEC): did not cause a significant increase
16972 (antisense eT*e[5mC]*eA*e[5mC]*eG*dT*dT*dG*dG*dC*dG*dC*dT*dT*dA*eG*e[5mC]*e[5mC]*eA*eT) [compound 16972] | 87 | 60 | 11.68 | 0.67 | 91 | 

— patent US7148204B2, “Antisense modulation of bcl-x expression” (Isis Pharmaceuticala, Inc., priority 1998, dated 2006)
